Data on 17 molecules can be found in patent publication US8765735B2, “Isoxazolines as inhibitors of fatty acid amide hydrolase” (Infinity Pharmaceuticals, Inc., priority 2009, dated 2014).

The test addresses T1, human FAAH (Homo sapiens, UniProt O00519).
T1 construct: host or cells: COS-7 cells, transient transfection; 13,000 g membrane fraction solubilised in 1% Triton X-100
T1 sequence (O00519 1-579): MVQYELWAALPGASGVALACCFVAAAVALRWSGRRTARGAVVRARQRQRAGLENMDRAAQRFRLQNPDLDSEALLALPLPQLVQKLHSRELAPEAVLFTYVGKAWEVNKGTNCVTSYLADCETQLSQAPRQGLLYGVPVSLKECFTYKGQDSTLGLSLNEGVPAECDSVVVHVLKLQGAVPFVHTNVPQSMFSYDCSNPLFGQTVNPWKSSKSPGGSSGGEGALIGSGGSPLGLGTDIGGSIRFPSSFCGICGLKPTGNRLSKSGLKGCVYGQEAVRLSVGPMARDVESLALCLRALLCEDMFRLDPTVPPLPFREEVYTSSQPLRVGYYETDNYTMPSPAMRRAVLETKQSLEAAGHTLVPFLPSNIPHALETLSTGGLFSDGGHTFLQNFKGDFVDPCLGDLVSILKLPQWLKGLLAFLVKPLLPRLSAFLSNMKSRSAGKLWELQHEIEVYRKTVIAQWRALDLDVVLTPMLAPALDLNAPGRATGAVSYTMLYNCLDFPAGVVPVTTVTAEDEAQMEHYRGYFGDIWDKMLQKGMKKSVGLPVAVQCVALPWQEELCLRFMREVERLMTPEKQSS
The test is described as follows: Inhibition of human FAAH (fluorescence assay, AMC arachidonoyl amide substrate). It counts as biochemical. The following applies: solubilized human FAAH from transfected COS-7 cells; 30 min preincubation; 20 μM AMC-arachidonoyl amide; 4 h at room temperature. The protocol:
Human FAAH Preparation: COS-7 cells were split the day before, 1:5 into 150 mm×25 mm cell culture dishes (Corning Inc., Cat. No. 430599). Transient transfection took place at 30-40% confluency according to FuGENE 6 Transfection Reagent (Roche, Cat. No. 11814 443 001).
Transfection Procedure: The FuGENE transfection 6 reagent (45 uL) was added to 1410 μL of media (DMEM, serum free without pen/strep) in a 15 mL conical tube and incubated at room temp for 5 minutes, followed by the addition of FAAH plasmid DNA (15 μg) (OriGene Cat. No. TC119221, Genbank Accession No. NM_001441.1, 0.67 ug/uL) and a further incubation of 15 minutes at room temperature. The resulting solution was added into one dish of 30-40% confluent COS-7 cells in a drop-wise manner. The COS-7 cell dish was subsequently incubated for 48 hours. The cells are then harvested.
Harvest procedure: Media was aspirated from the dishes and the cells rinsed with 10 mL PBS. The PBS was removed and 3 mL of PBS added to the dish. The dish was scraped to resuspend the cells, and the subsequent cell suspension collected into a 15 mL conical tube. The cells were pelleted by centrifugation at 1200 rpm for 5 minutes in a bench top centrifuge. PBS was removed and the cell pellet snap frozen in liquid nitrogen and stored at −80° C.
COS-7 cells—FAAH purification: • (1) Fractionation: Frozen cell pellets from transient transfections were thawed on ice and resuspended in 12.5 mM Hepes pH 8.0, 100 mM NaCl, 1 mM EDTA (10 mL/0.2 g cell pellet). The pellets were dounce homogenized and then sonicated to produce cell extract. The cell extract was subsequently centrifuged at 1000 g to remove cellular debris. The pellet was discarded and the supernatant centrifuged at 13,000 g for 20 minutes. The pellet contained membrane bound FAAH. The supernatant was discarded and the pellet resolubilized. • (2) Re-solubilization: The fraction of interest, (13,000 g, membrane fraction) was re-suspended in 2.3 mL re-suspension buffer (20 mM Hepes pH 7.8, 10% v/v Glycerol, 1 mM EDTA, 1% Triton X-100) and the sample incubated on ice for 1 hour and then centrifuged to remove any particulate matter. The supernatant containing solubilized human FAAH was aliquoted and snap frozen in liquid nitrogen and stored at 80° C. until use. • (3) Characterization: Protein Concentration determined by Bradford assay. • SDS gel and Western blot to confirm presence of FAAH • FAAH activity assay • Km determination—96-well assay • Linear dependence—96-well assay • Standard compound Ki determination—384-well assay
Human FAAH assay; Experimental Protocol: A 0.1 mg/mL Human FAAH solution was made up in FAAH reaction buffer, and 24 ul pipeted into a 384 well plate. To this was added 1 μL of a 3 fold serially diluted inhibitor from a DMSO stock solution. The FAAH solution and inhibitor were incubated for 30 minutes at room temperature. The FAAH reaction was initiated by the addition of 25 μL of 40 μM AMC Arachidonoyl Amide in FAAH reaction buffer, yielding a final reaction human FAAH preparation concentration of 0.05 mg/ml and AMC-Arachidonoyl substrate concentration of 20 μM, reaction volume 50 μL. The reaction was allowed to proceed for 4 hours at room temperature. The reaction was stopped by the addition of 25 μL 12 μM a-ketoheterocycle (Cayman Chemicals, catalogue #10435). The microtiter plate was read in the envision plate reader.
The raw fluorescence was plotted on the y axis and the inhibitor concentration on the x axis to give a dose response inhibition curve. The data was fitted to a single site competitive inhibition equation, fixing the Km for the human enzyme to 12 μM and 9 μM respectively.

What is called Ki is the dissociation constant of the complex between target and ligand, obtained from inhibition or displacement. A high value points to a looser hold on the target.

In turn, `O=C(Oc1ccccc1)N1CCC2(CC1)CC(Br)=NO2` [III-37] returned a Ki not above 100 nM.
To `CC(C)(C)OC(=O)N1CCC[C@]2(CC1)CC(Br)=NO2` [III-12b] belongs not above 100 nM; to `C#Cc1ccc(CN2CCC3(CC2)CC(Br)=NO3)cc1` [III-49], not above 100 nM; to `COc1ccc(COC(=O)N2CCC3(CC2)CC(Br)=NO3)cc1` [III-39], not above 100 nM.
`O=C(OCc1ccccc1)N1CCC2(CC1)CC(Br)=NO2` [III-18]: the Ki is not above 100 nM.
`O=C(CCc1ccccc1)N1CCC2(CC1)CC(Oc1cncnc1)=NO2` [III-54] yielded a Ki of 100 to 1000 nM.
To `BrC1=NOC2(CCN(CCCc3ccccc3)CC2)C1` [III-28] belongs not above 100 nM; to `BrC1=NO[C@]2(CC[C@@H](COc3ccccc3)CC2)C1` [III-8b], not above 100 nM.
The same measure for `Clc1ccc(CN2CCC3(CC2)CC(Oc2cncnc2)=NO3)cc1` [III-52]: not above 100 nM; for `Clc1ccc(CN2CCC3(CC2)CC(Br)=NO3)cc1Cl` [III-25]: not above 100 nM.
The same measure for `BrC1=NOC2(CCN(Cc3cccnc3)CC2)C1` [III-23]: 100 to 1000 nM; for `BrC1=NOC2(CCNCC2)C1` [III-14]: not below 1000 nM; for `O=C(OCc1ccccc1)N1CC2ON=C(Br)C2C1` (centres unmarked) [III-44]: not above 100 nM.
Regarding `FC(F)(F)Oc1ccc2c(c1)CC[C@@]21CC(Br)=NO1` [III-66a], the Ki is not above 100 nM.
On to `O=C(OCc1ccc(Cl)cc1)N1CCC2(CC1)CC(Br)=NO2` [III-40], for which the Ki was not above 100 nM.
The same measure for `CSc1ccc(OC2=NO[C@@]3(CCc4cc(OC(F)(F)F)ccc43)C2)cn1` [III-67b]: not above 100 nM; for `BrC1=NOC2(CCN(Cc3ccccc3)CC2)C1` [III-19]: not above 100 nM.
